We go through seven cell lines from the supplement of paper PMC10307832.

Common to all, as to assay: relative viability (nuclei count vs DMSO), 5 days (fraction); higher = more cells survive
Compound in experiment [1]: C/C(=N\NC(=S)N1CCC1)/C2=CC=CC=N2 + CCNC(=O)c1noc(-c2cc(C(C)C)c(O)cc2O)c1-c1ccc(CN2CCOCC2)cc1 [Luminespib] (partner 0.01 µM)
An outline of the steps:
(§1)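 Lung cancer cell lines in 1536-well plates got either a single drug or a fixed anchor-drug dose together with five library-drug doses (not always all listed) in √10 steps, by pin tool, on the day after seeding. Nuclei were counted after 5 days, and relative viability is the treated-to-vehicle ratio of nuclei counts. Values are medians of duplicate plates.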

Compound in experiment [2]: C/C(=N\NC(=S)N1CCC1)/C2=CC=CC=N2 + Nc1ncn([C@H]2C[C@H](O)[C@@H](CO)O2)c(=O)n1 [Decitabine] (partner 2 µM)
An outline of the steps: as §1

Compound in experiment [3]: C/C(=N\NC(=S)N1CCC1)/C2=CC=CC=N2 + O=C(c1cc(Cc2n[nH]c(=O)c3ccccc23)ccc1F)N1CCN(C(=O)C2CC2)CC1 [Olaparib] (partner 8 µM)
The method in brief:
as §1

Compound in experiment [4]: C/C(=N\NC(=S)N1CCC1)/C2=CC=CC=N2 + CS(=O)(=O)CCNCc1ccc(-c2ccc3ncnc(Nc4ccc(OCc5cccc(F)c5)c(Cl)c4)c3c2)o1 [Lapatinib] (partner 2 µM)
The method in brief:
as §1

As to ChaGo-K-1, the relative viability in experiment [1] (first compound 0.05 µM) came out at 0.167; in experiment [1] (first compound 0.1581 µM), 0.172; in experiment [1] (first compound 0.5 µM), 0.174; in experiment [1] (first compound 1.581 µM), 0.139; in experiment [1] (first compound 5 µM) it was 0.161; in experiment [2] (first compound 0.05 µM), 0.159. Also, the relative viability is 0.321 in experiment [2] (first compound 0.1581 µM); 0.147 in experiment [2] (first compound 0.5 µM); 0.174 in experiment [2] (first compound 1.581 µM); 0.178 in experiment [2] (first compound 5 µM); 0.137 in experiment [3] (first compound 0.05 µM); 0.247 in experiment [3] (first compound 0.1581 µM). Also, the relative viability came out at 0.126 in experiment [3] (first compound 0.5 µM), 0.138 in experiment [3] (first compound 1.581 µM) and 0.135 in experiment [3] (first compound 5 µM).

For NCI-H1755, the relative viability in experiment [4] (first compound 0.05 µM) was determined as 0.249; in experiment [4] (first compound 0.1581 µM), 0.173; in experiment [4] (first compound 0.5 µM) it was 0.195; in experiment [4] (first compound 1.581 µM) it was 0.205; in experiment [4] (first compound 5 µM), 0.191; in experiment [1] (first compound 0.05 µM), 0.191. Further, the relative viability in experiment [1] (first compound 0.1581 µM) is 0.184; in experiment [1] (first compound 0.5 µM) it was 0.198; in experiment [1] (first compound 1.581 µM), 0.243; in experiment [1] (first compound 5 µM) it was 0.275; in experiment [2] (first compound 0.05 µM), 0.503; in experiment [2] (first compound 0.1581 µM), 0.664. In addition, the relative viability in experiment [2] (first compound 0.5 µM) came out at 0.311; in experiment [2] (first compound 1.581 µM), 0.271; in experiment [2] (first compound 5 µM) it was 0.346; in experiment [3] (first compound 0.05 µM), 0.632; in experiment [3] (first compound 0.1581 µM), 0.858; in experiment [3] (first compound 0.5 µM), 0.288. Also, the results for the relative viability in experiment [3] (first compound 1.581 µM) and in experiment [3] (first compound 5 µM) were 0.29 and 0.224, respectively.

For NCI-H2228, the relative viability in experiment [4] (first compound 0.05 µM) turned out to be 0.144; in experiment [4] (first compound 0.1581 µM), 0.162; in experiment [4] (first compound 0.5 µM) it was 0.136; in experiment [4] (first compound 1.581 µM) it was 0.0958; in experiment [4] (first compound 5 µM), 0.139; in experiment [1] (first compound 0.05 µM) it was 0.168. The relative viability in experiment [1] (first compound 0.1581 µM) worked out at 0.119; in experiment [1] (first compound 0.5 µM) it was 0.129; in experiment [1] (first compound 5 µM) it was 0.158; in experiment [3] (first compound 0.05 µM), 0.125; in experiment [3] (first compound 0.1581 µM), 0.142; in experiment [3] (first compound 0.5 µM), 0.138. In addition, the relative viability was found to be 0.115 in experiment [3] (first compound 1.581 µM) and 0.107 in experiment [3] (first compound 5 µM).

Consider NCI-H2087, for which the relative viability in experiment [4] (first compound 0.05 µM) amounted to 0.196; in experiment [4] (first compound 0.1581 µM), 0.268; in experiment [4] (first compound 0.5 µM) it was 0.224; in experiment [4] (first compound 1.581 µM) it was 0.195; in experiment [4] (first compound 5 µM) it was 0.143; in experiment [1] (first compound 0.05 µM) it was 0.116. Besides, the relative viability in experiment [1] (first compound 0.1581 µM) was determined as 0.0944; in experiment [1] (first compound 0.5 µM), 0.159; in experiment [1] (first compound 1.581 µM), 0.142; in experiment [1] (first compound 5 µM), 0.137; in experiment [2] (first compound 0.05 µM), 0.136; in experiment [2] (first compound 0.1581 µM), 0.0973. Besides, the relative viability in experiment [2] (first compound 0.5 µM) was found to be 0.107; in experiment [2] (first compound 1.581 µM) it was 0.103; in experiment [2] (first compound 5 µM) it was 0.0802; in experiment [3] (first compound 0.05 µM), 0.123; in experiment [3] (first compound 0.1581 µM), 0.113; in experiment [3] (first compound 0.5 µM) it was 0.138. For the same cell line, the relative viability in experiment [3] (first compound 1.581 µM) amounted to 0.144; in experiment [3] (first compound 5 µM), 0.0767.

Regarding LU99A, the relative viability in experiment [4] (first compound 0.05 µM) was determined as 0.153; in experiment [4] (first compound 0.1581 µM) it was 0.132; in experiment [4] (first compound 0.5 µM), 0.136; in experiment [4] (first compound 1.581 µM) it was 0.128; in experiment [4] (first compound 5 µM), 0.172; in experiment [1] (first compound 0.05 µM), 0.15. Further, the relative viability was 0.116 in experiment [1] (first compound 0.1581 µM); 0.152 in experiment [1] (first compound 0.5 µM); 0.164 in experiment [1] (first compound 1.581 µM); 0.148 in experiment [1] (first compound 5 µM); 0.222 in experiment [2] (first compound 0.05 µM); 0.624 in experiment [2] (first compound 0.1581 µM). For the same cell line, the relative viability amounted to 0.171 in experiment [2] (first compound 0.5 µM); 0.162 in experiment [2] (first compound 1.581 µM); 0.173 in experiment [2] (first compound 5 µM); 0.168 in experiment [3] (first compound 0.05 µM); 0.207 in experiment [3] (first compound 0.1581 µM); 0.124 in experiment [3] (first compound 0.5 µM). The relative viability in experiment [3] (first compound 1.581 µM) stood at 0.102; in experiment [3] (first compound 5 µM) it was 0.128.

Consider NCI-H1355, for which the relative viability in experiment [4] (first compound 0.05 µM) amounted to 0.203; in experiment [4] (first compound 0.1581 µM) it was 0.238; in experiment [4] (first compound 0.5 µM) it was 0.205; in experiment [4] (first compound 1.581 µM), 0.167; in experiment [4] (first compound 5 µM) it was 0.18; in experiment [1] (first compound 0.05 µM), 0.176. Also, the relative viability was 0.179 in experiment [1] (first compound 0.1581 µM); 0.192 in experiment [1] (first compound 0.5 µM); 0.167 in experiment [1] (first compound 1.581 µM); 0.173 in experiment [1] (first compound 5 µM); 0.206 in experiment [2] (first compound 0.05 µM); 0.207 in experiment [2] (first compound 0.1581 µM). Besides, the relative viability in experiment [2] (first compound 0.5 µM) came to 0.189; in experiment [2] (first compound 1.581 µM), 0.172; in experiment [2] (first compound 5 µM), 0.157; in experiment [3] (first compound 0.05 µM), 0.22; in experiment [3] (first compound 0.1581 µM) it was 0.179; in experiment [3] (first compound 0.5 µM), 0.171. Also, the relative viability in experiment [3] (first compound 1.581 µM) worked out at 0.175; in experiment [3] (first compound 5 µM) it was 0.142.

On to NCI-H520, for which the relative viability was 0.131 in experiment [4] (first compound 0.05 µM); 0.148 in experiment [4] (first compound 0.1581 µM); 0.12 in experiment [4] (first compound 0.5 µM); 0.12 in experiment [4] (first compound 1.581 µM); 0.144 in experiment [4] (first compound 5 µM); 0.194 in experiment [1] (first compound 0.05 µM). Also, the relative viability was 0.21 in experiment [1] (first compound 0.1581 µM); 0.199 in experiment [1] (first compound 0.5 µM); 0.21 in experiment [1] (first compound 1.581 µM); 0.235 in experiment [1] (first compound 5 µM); 0.161 in experiment [2] (first compound 0.05 µM); 0.167 in experiment [2] (first compound 0.1581 µM). Moreover, the relative viability in experiment [2] (first compound 0.5 µM) was 0.145; in experiment [2] (first compound 1.581 µM) it was 0.159; in experiment [2] (first compound 5 µM), 0.17; in experiment [3] (first compound 0.05 µM), 0.122; in experiment [3] (first compound 0.1581 µM), 0.131; in experiment [3] (first compound 0.5 µM) it was 0.125. The relative viability was 0.106 in experiment [3] (first compound 1.581 µM) and 0.143 in experiment [3] (first compound 5 µM).
